Experimental data: US10980769B2, “Tiglien-3-one derivatives” (QBIOTICS PTY LTD, priority 2005, dated 2021)
“Also recorded” adds a separate entry of the source.

What was measured:
MCF-7 = experiment: Cell scattering of cultured cells; type: cell-based, human
[1] = test system: K562 leukemia, MCF-7 breast cancer, Colo-205 colon cancer and D04 and SKMel-5 melanoma; experiment: In vitro growth inhibition profile, sensitive versus other cell lines; type: cell-based, human
Procedure: In addition, scattering of MCF-7 and HT-29 colon tumour cells was observed, typical of PKC activators. […] Additionally, given their similarity in structure, EBI-47, EBI-59 and EBI-61 are also considered to be protein kinase C activators.
For growth inhibition assays, cells (2000-5000/well) were seeded in 96-well plates in duplicate, treated with drug next day and allowed to grow for a further 5-6 days. The plates were then washed in PBS (phosphate buffered saline, pH 7.2), fixed with ethanol and stained by addition of 50 μL 0.4% SRB (sulforhodamine) in 1% acetic acid. The plate was left at room temperature for a minimum of 15 minutes, then washed rapidly with tap water and then twice with 1% acetic acid. After addition of 100 μL/well of 10 mM Tris base (unbuffered, pH>9), plates were left for a minimum of 5 minutes, then the absorbance was read at 564 nm on the ELISA reader, with a 3 second prior shaking. After subtraction of a blank (wells with no cells, typically about 0.04), growth inhibition was calculated as % of the untreated control and plotted against dose. […]

MM96L cell line = experiment: Changes in morphology of cultured cells; type: cell-based, human
PKC = PKC activation in cultured tumour cells (scattering and growth inhibition of MCF7); type: cell-based, human; conditions: defined by scattering and growth inhibition of MCF7 breast cancer cells
Trichophyton rubrum = experiment: MycoTOX (Tr) antifungal bioassay; type: cell-based
Procedure: MycoTOX (alternatively referred to herein as Tr) is a non-chromogenic bioassay used to detect activity against filamentous fungal pathogens of plants and animals. The bioassay features a solid phase agar base into which the test compound has been incorporated. As the growth patterns of filamentous fungi are readily apparent on the agar surface the extent of mycelial growth, sporulation (if relevant to the species under investigation) and colour changes with maturation are measured.
MycoTOX, involves a fungus (spore suspension or mycelial fragments) being applied to the surface of an agar matrix containing the test chemical and allowed to grow for a period of up to a week (depending on species). The assay is monitored at two discrete times to identify key development phases in the life cycle (for example mycelial growth and extent of sporulation) and the active wells noted. The monitoring times are dependent on the fungal species under investigation.
The MycoTOX assays were carried out using Trichophyton rubrum. The MycoTOX test is alternatively referred to as Tr to indicate the use of Trichophyton rubrum.

fly eggs = experiment: DipteraTOX fly development bioassay; design: key: A value of A in DipG, Dip P or Dip H represents very active; a value of P represents active; conditions: 250 μg per mL in agar
Procedure: DipteraTOX is referred to herein as DipG, DipP and DipH. DipG represents no grazing of larva. DipP represents no pupae formation and Dip H represents no hatching of flies. A value of A in DipG, Dip P or Dip H represents very active and a value of P represents active. In DipteraTox the fly eggs were applied to the surface of an agar matrix containing 250 μg per mL of the test chemical and allowed to hatch, develop and pupate for a period up of two weeks. The assay was monitored at two discrete times to determine the extent of grazing of the agar matrix at Week 1 and the presence of adult flies at Week 2.

[2] = test system: NS1 murine myeloma cell line; experiment: CyTOX (Cy) chromogenic cytotoxicity bioassay; type: cell-based; conditions: for Cy LD99: weight of chemical in last well with activity, real value may be lower
Source text: CyTOX (alternatively referred to herein as Cy) is a microtitre plate bioassay use to identify potential antitumour actives. CyTOX is a chromogenic bioassay with broad application to a wide range of tumour and non-tumour cell lines.
CyTOX features a liquid media into which the test compound has been incorporated together with a novel chromogen. As the cells grow and divide the chromogen is metabolised from purple in a single step process to a colourless metabolite. CyTOX was undertaken using NS1 murine myeloma cell line as a guide to mammalian cell toxicity.
Briefly, in CyTOX the cells were applied to the media containing the test chemical and allowed to grow for 72 hours. The assay was monitored at 24, 48 and 72 hours and the active wells identified.

Bacillus subtilis = experiment: ProTOX (Bs) antibacterial bioassay; type: cell-based
Source text: ProTOX, (alternatively referred to herein as Bs) is an antibacterial bioassay, broadly applicable to most aerobic and anaerobic bacteria. The bioassay features a solid phase agar base into which the test compound has been incorporated together with a chromogen. As the bacteria multiply in the well, the chromogen is metabolised from blue in a two-step process to a colourless compound. Compounds with potent bactericidal activity inhibit bacterial metabolism of the chromogen while bacteriostatic compounds induce limited metabolism as indicated by an intermediate pink colour. ProTOX is broadly applicable to a range of gram-positive and gram-negative bacteria under aerobic and microaerophilic conditions. ProTOX assays were carried out using Bacillus subtilis.
Briefly, in ProTOX, the bacteria (24 hour broth) were applied to the surface of an agar matrix containing the test sample and allowed to grow for 48 hours. The assay was monitored at 24 and 48 hours and the active wells noted. Known antibiotics yield consistent colour transitions which are concentration and time dependent. These patterns provide an important guide to the early recognition of interesting characteristics.

[3] = test system: normal human fibroblasts (NFF); experiment: Growth inhibition of cultured cells; type: cell-based
Procedure: (§1) Briefly, a range of tumour cells including mouse melanoma, human melanoma, mouse squamous cell carcinoma, human breast, human colon, human leukemia and human lung and normal human cells including normal human fibroblasts were seeded at 2-5,000 per microtitre well (96-well plate) in 10% FCS-RPMI 1640 culture medium, treated, and allowed to grow until the controls were nearly confluent (5-6 days). The wells were then washed twice with PBS, fix with ethanol for a minimum of 5 minutes and washed with water. SRB solution (50 μL of 0.4% in 1% acetic acid) was added and left at room temperature for a minimum of 15 minutes. The plate was washed rapidly with tap water and then twice with 1% acetic acid. After addition of 100 μL/well of 10 mM Tris base (unbuffered, pH>9), plates were left for a minimum of 5 minutes, then the absorbance was read at 564 nm on the ELISA reader, with a 3 second prior shaking. After subtraction of a blank (wells with no cells, absorbance typically about 0.04), growth inhibition was calculated as % of the untreated control and plotted against dose.
(§2) Briefly, a suspension of a range of tumour cells including mouse melanoma, human melanoma, mouse squamous cell carcinoma, human breast, human colon, human leukemia and human lung and normal human cells including normal human fibroblasts were seeded into round-bottom microtitre plates in 10% FCS-RPMI 1640 culture medium, treated and allowed to grow for 5-6 days. To measure cell growth, 20 μL of a combined MTS/PMS solution (Promega Cell ProliferationAssay Kit Cat #G5430) was added to each well of the 96 well assay plate. After 1-4 hours the plates were placed in the ELISA plate reader and the absorbance read at 490 nm. After subtraction of a blank (wells with no cells, absorbance typically about 0.4), growth inhibition was calculated as % of the untreated control and plotted against dose.
(§3) For growth inhibition assays, cells (2000-5000/well) were seeded in 96-well plates in duplicate, treated with drug next day and allowed to grow for a further 5-6 days. The plates were then washed in PBS (phosphate buffered saline, pH 7.2), fixed with ethanol and stained by addition of 50 μL 0.4% SRB (sulforhodamine) in 1% acetic acid. The plate was left at room temperature for a minimum of 15 minutes, then washed rapidly with tap water and then twice with 1% acetic acid. After addition of 100 μL/well of 10 mM Tris base (unbuffered, pH>9), plates were left for a minimum of 5 minutes, then the absorbance was read at 564 nm on the ELISA reader, with a 3 second prior shaking. After subtraction of a blank (wells with no cells, typically about 0.04), growth inhibition was calculated as % of the untreated control and plotted against dose.

human leukemia K562 = experiment: Growth inhibition of cultured cells; type: cell-based
Procedure: as §1, §2, §3

human breast MCF-7 = experiment: Growth inhibition of cultured cells; type: cell-based; conditions: human breast MCF-7
Procedure: as §1, §2, §3

Giardia spp. = experiment: TriTOX (Gi) anti-protozoan bioassay; type: cell-based
Procedure: is a microtitre plate based chromogenic bioassay for the screening of anti-protozoan activity of pathogenic, anaerobic/microaerophilic protozoans for example Giardia spp. and Trichomonas spp. The bioassays are run under anaerobic conditions and features species specific chromogens. The minimum inhibitory concentrations (approximate LD99) are determined by the following method: stock solutions of the unknowns are serially diluted ½ to give 12 concentrations over a 2,048-fold range. Aliquots of each concentration(s) are applied to the wells of 96-well microtitre plates and diluted with media. […] The lowest concentration at which the compound is active is noted as the minimum inhibitory concentration (MIC). Additionally, microscopic inspection is carried out to identify any patterns of morphological change that may be consistent with a type of toxicity and therefore mode of action. Giardia spp. was utilized for this assay.

human prostate DU145 = experiment: Growth inhibition of cultured cells; type: cell-based
Procedure: as §1, §2

human melanoma MM418c5 = experiment: Growth inhibition of cultured cells; type: cell-based
Procedure: as §1, §2

Haemonchus contortus = experiment: NemaTOX (Ne) anthelmintic larval development bioassay
Procedure: NemaTOX (alternatively referred to herein as Ne) is an anthelmintic bioassay, applicable to all parasitic nematodes with free-living life cycle stages, and can be used as a screen to detect activity and define the species spectrum of compounds against parasitic nematodes and examine the impact of pre-existing resistance to other anthelmintic classes on potency. Haemonchus contortus was utilised for this assay.
The effect on larval development was determined in this assay by the method described by Gill et al. (1995) Int. J. Parasitol. 25: 463-470. Briefly, in this assay nematode eggs were applied to the surface of an agar matrix containing the test sample and allowed to develop through to the L3, infective stage (6 days). At this time the stage of larval development reached and any unusual features (deformity, paralysis, toxicity) were noted by microscopic examination.

[4] = weight of chemical in last well with activity, real value may be lower

Molecule	scattering of MCF-7 cells (MCF-7)	growth-inhibiting doses in sensitive cell lines lower than for other human tumour cell lines and normal human fibroblasts [1]	change in morphology of MM96L cells (MM96L cell line)	PKC activity (PKC)	Tr Titre (Trichophyton rubrum)	DipH (no hatching of flies) (fly eggs)	Cy Titre [2]	Cy LD99 [2] [µg/mL]	Bs Titre (Bacillus subtilis)	Concentration of EB548.LA4.61-29/32 At which growth inhibition was observed [3]	Concentration of EB548.LA4.61-29/32 At which growth inhibition was observed (human leukemia K562) [µg/mL]	Concentration of EB548.LA4.61-29/32 At which growth inhibition was observed (human breast MCF-7) [µg/mL]	Gi Titre (Giardia spp.)	Gi LD99 (Giardia spp.; [4]) [µg/mL]	Concentration of EB548.LA4.61-29/32 At which growth inhibition was observed (human prostate DU145) [µg/mL]	Concentration of EB548.LA4.61-29/32 At which growth inhibition was observed (human melanoma MM418c5) [µg/mL]	Ne Titre (Haemonchus contortus)	Ne LD99 (Haemonchus contortus; [4]) [µg/mL]	DipP (no pupae formation) (fly eggs)
tetradecanoyl phorbol acetate [TPA, reference compound]	scattering	approximately 100 fold	characteristic change to bipolar morphology; also recorded: extreme bipolar morphology	–	–	–	–	–	–	–	–	–	–	–	–	–	–	–	–
CCC(C)C(=O)OC1C(C)C2(O)C(C3OC3(CO)C(O)C3(O)C(=O)C(C)=CC32)C2C(C)(C)C12OC(=O)C(C)CC (centres unmarked) [EBI-47, 12,13-di-(2-methylbutanoyl)-6,7-epoxy-4,5,9,12,13,20-hexahydroxy-tigliaen-3-one]	–	–	–	yes	0/—	P	4	16	0/—	None observed at 10 μg/mL	0.1	0.03	2	31	10	0.03	2	31	–
CCCCC/C=C/C=C/C=C/C(=O)OC1C(C)C2(O)C(C3OC3(CO)C(O)C3(O)C(=O)C(C)=CC32)C2C(C)(C)C12OC(=O)C(C)CC (centres unmarked) [EBI-59, 12-(dodeca-2,4,6-trienoyl)-13-(2-methylbutanoyl)-6,7-epoxy-4,5,9,12,13,20-hexahydroxy-1-tigliaen-3-one]	–	–	–	yes	0/—	A/A	16	3.9	0/—	–	–	–	–	–	–	–	0/—	–	A/A
